Results reported in article PMC4904246 (Journal of Medicinal Chemistry, 2016).
Values after ≈ are worked out from the molar mass of the structure shown.

Tests used:
[1] = kinetic aqueous solubility by nephelometry; format: physicochemical; conditions: pH 6.5 phosphate buffer, pH 6.5
[2] = in vitro metabolism, human liver microsomes; format: in vitro ADME; conditions: human, pooled human liver microsomes

Row | SMILES | solubility kinetic at 30 min [1] | CLint scaled at 1 μM [2]
1 | Cc1cc(NC2Cc3cccc(F)c3C2)n2nc(C(C)(F)F)nc2n1 (centres unmarked) [Compound 34, 2-(1,1-Difluoroethyl)-N-(4-fluoro-2,3-dihydro-1H-inden-2-yl)-5-methyl-[1,2,4]triazolo[1,5-a]pyrimidin-7-amine] | 12.5 to 25 µg/mL (≈ 36 to 72 µM) | 9.1 mL/min/kg
2 | Cc1cc(NC2Cc3c(C)ccc(C)c3C2)n2nc(C(C)(F)F)nc2n1 [Compound 32, N-(4,7-Dimethyl-2,3-dihydro-1H-inden-2-yl)-2-(1,1-difluoroethyl)-5-methyl-[1,2,4]triazolo[1,5-a]pyrimidin-7-amine] | 6.3 to 12.5 µg/mL (≈ 17.6 to 35 µM) | 138 mL/min/kg
3 | Cc1cc(NC2Cc3c(F)ccc(F)c3C2)n2nc(C(C)(F)F)nc2n1 [Compound 33, N-(4,7-Difluoro-2,3-dihydro-1H-inden-2-yl)-2-(1,1-difluoroethyl)-5-methyl-[1,2,4]triazolo[1,5-a]pyrimidin-7-amine] | 6.3 to 12.5 µg/mL (≈ 17.2 to 34.2 µM) | 27 mL/min/kg
4 | Cc1cc(NC2Cc3ccccc3C2)n2nc(C(C)(F)F)nc2n1 [Compound 26, 2-(1,1-Difluoroethyl)-N-(2,3-dihydro-1H-inden-2-yl)-5-methyl[1,2,4]triazolo[1,5-a]pyrim-idin-7-amine] | 25 to 50 µg/mL (≈ 75.9 to 152 µM) | 20 mL/min/kg
5 | Cc1cc(NC2CCc3ccc(Cl)cc3C2)n2nc(C(F)(F)F)nc2n1 (centres unmarked) [Compound 24, N-(7-Chloro-1,2,3,4-tetrahydronaphthalen-2-yl)-5-methyl-2-(trifluoromethyl)-[1,2,4]triazolo[1,5-a]pyrimidin-7-amine] | 1.6 to 3.1 µg/mL (≈ 4.19 to 8.12 µM) | 7.4 mL/min/kg
6 | Cc1cc(NC2CCc3cc(F)c(C(F)(F)F)cc3C2)n2nc(C(C)(F)F)nc2n1 (centres unmarked) [Compound 20, 2-(1,1-Difluoroethyl)-N-(6-fluoro-7-(trifluoromethyl)-1,2,3,4-tetrahydronaphthalen-2-yl)-5-methyl-[1,2,4]triazolo[1,5-a]pyrimidin-7-amine] | 3.1 to 6.3 µg/mL (≈ 7.22 to 14.7 µM) | < 5.8 mL/min/kg
7 | Cc1cc(NC2Cc3cccc(C(F)(F)F)c3C2)n2nc(C(C)(F)F)nc2n1 (centres unmarked) [Compound 36, 2-(1,1-Difluoroethyl)-5-methyl-N-(4-(trifluoromethyl)-2,3-dihydro-1H-inden-2-yl)-[1,2,4]triazolo[1,5-a]pyrimidin-7-amine] | 6.3 to 12.5 µg/mL (≈ 15.9 to 31.5 µM) | 25 mL/min/kg
8 | Cc1cc(NC2CCc3cc(Br)ccc3C2)n2nc(C(C)(F)F)nc2n1 (centres unmarked) [Compound 12, 2-(1,1-Difluoroethyl)-N-(6-bromo-1,2,3,4-tetrahydronaphthalen-2-yl)-5-methyl-[1,2,4]triazolo[1,5-a]pyrimidin-7-amine] | 3.1 to 6.3 µg/mL (≈ 7.34 to 14.9 µM) | < 5.8 mL/min/kg
9 | Cc1cc(NC2CCc3cc(F)ccc3C2)n2nc(C(C)(F)F)nc2n1 (centres unmarked) [Compound 6, 2-(1,1-Difluoroethyl)-N-(6-fluoro-1,2,3,4-tetrahydronaphthalen-2-yl)-5-methyl-[1,2,4]triazolo[1,5-a]pyrimidin-7-amine] | 6.3 to 12.5 µg/mL (≈ 17.4 to 34.6 µM) | 12 mL/min/kg
10 | Cc1cc(NC2Cc3ccc(Cl)cc3C2)n2nc(C(C)(F)F)nc2n1 (centres unmarked) [Compound 28, N-(5-Chloro-2,3-dihydro-1H-inden-2-yl)-2-(1,1-difluoroethyl)-5-methyl-[1,2,4]triazolo[1,5-a]pyrimidin-7-amine] | 6.3 to 12.5 µg/mL (≈ 17.3 to 34.4 µM) | 8.2 mL/min/kg
11 | COc1ccc2c(c1)CC(Nc1cc(C)nc3nc(C(C)(F)F)nn13)CC2 (centres unmarked) [Compound 16, 2-(1,1-Difluoroethyl)-N-(7-methoxy-1,2,3,4-tetrahydronaphthal-en-2-yl)-5-methyl-[1,2,4]triazolo[1,5-a]pyrimidin-7-amine] | 12.5 to 25 µg/mL (≈ 33.5 to 67 µM) | 15 mL/min/kg
12 | Cc1cc(NC2CCc3cc(F)c(F)cc3C2)n2nc(C(C)(F)F)nc2n1 (centres unmarked) [Compound 19, 2-(1,1-Difluoroethyl)-N-(6,7-difluoro-1,2,3,4-tetrahydronaphthalen-2-yl)-5-methyl-[1,2,4]triazolo[1,5-a]pyrimidin-7-amine] | – | 9.1 mL/min/kg
